These results are taken from US8642559B2, “C-terminal domain truncation of mGluR1α by calpain and uses thereof” (priority 2006, dated 2014).

Entries after “also recorded” stand apart in the source; their conditions may differ.

For test [1], the system named is cultured neurons. The experiment in a line: Blockade of NMDA neurotoxicity in cultured neurons (live/dead cell assay). It is filed as cell-based. The settings on record: peptide 8 μM, pretreated 90 min; NMDA 50 μM 1 h; analyzed 12 h later. As for the experimental part:
In this figure, cultured neurons were pretreated with the tat-peptide for 90 min. They were then treated with NMDA (50 μM) for 1 h. They were analyzed 12 h later by live/dead cell assay (0.5 μM EthD-1 and 2 μM Calcein AM).

Test [2] has as its system mGluR1. The experiment in a line: Brain membranes treated with purified calpain and calcium: mGluR1 truncation. The test is classed as biochemical. To be noted: purified calpain, calcium. As for the experimental part:
(§1) As previously mentioned, calpain inhibitors were previously shown to exert neuroprotective effects in some models of neurodegeneration, and it could be argued that the effects of the tat-mGluR1 peptide we observed were due to some calpain inhibitor effects of the peptide. However, the inventors of the present invention have discovered that this is not likely the case. In particular, when brain membranes were treated with purified calpain in the presence of calcium, truncation of both mGluR1 and spectrin was observed. […] The inventors believe that the peptide acts as a calpain substrate competing with mGluR1 for calpain. The selective protection of tat-mGluR1 has the advantage that it may act as a selective blocking agent without disrupting calpain's other enzymatic activities. Thus, a blocking agent of the present invention will have the advantage of having reduced side-effect profile than calpain inhibitors.

Test [3] deals with hippocampal neurons. In words: Kainic acid-induced neuronal damage (silver staining) and seizures in mice. It is filed as in vivo. As for the experimental part:
(§2) The tat-peptide was injected i.p. 90 min before kainic acid injection. Note that the peptide had no effect on seizure intensity (bottom left).
They were sacrificed after 7 days and brains processed for silver staining, a marker of cell damage. Note the heavy labeling of the pyramidal cell layer in the KA alone group.
The effect of the tat-mGluR1 peptide on kainic acid-induced neuronal damage was also evaluated.

Test [4] deals with mGluR1α. In words: In vivo truncation of mGluR1α in hippocampus after kainic acid injection. To be noted: peptide i.p. 90 min before kainic acid 30 mg/kg s.c., mice. As for the experimental part:
as §2
The objective of this set of experiments was to verify that the feedback mechanism of the present invention could take place in vivo and participate in excitotoxicity. We used the kainic acid model of excitotoxicity, as this model has been widely used to study the mechanisms underlying in vivo excitotoxicity (Wang et al. Mol Neurobiol 31:3-16, 2005). Mice were injected with kainic acid and sacrificed at different times after injection. Levels of mGluR1α were determined in hippocampus with both Western blots and immunohistochemistry (FIG. 10).

Test [5] concerns cultured hippocampal slices. In words: OGD-induced cell death in cultured hippocampal slices (LDH release, PI uptake). It is filed as cell-based. To be noted: 10 μM for 3 h before and during OGD (30 min); 3 h and 24 h after OGD. On the procedure:
Cultured slices were subjected to OGD for 30 min, and returned to normal glucose and oxygen conditions for 24 h. Neuronal damage was assessed by the propidium iodide (PI) uptake method, which labels damaged cells (a, b), and by LDH release in culture medium (c).
We used a well-known in vitro stroke model, combined oxygen/glucose deprivation in cultured hippocampal slices, to test the idea that the mechanism we have proposed, i.e., calpain-mediated truncation of mGluR1, accounts for neuronal death in stroke. Furthermore, we tested the neuroprotective effects of the tat-mGluR1 peptide in this stroke model. In this model, cultured hippocampal slices are treated for various periods of time (30-60 min) by changing the cultured medium to a medium without glucose and replacing the normal air/5% CO2 with nitrogen. After this period of time, slices are returned to normal glucose-containing medium and exposed to air/5% CO2 and are cultured for again various periods of time. Cell death is evaluated by measuring the amount of LDH release in the medium at various times, as well as by the extent of Propidium Iodide (PI) uptake in the cells (LDH release in the medium is an index of membrane damage, as LDH is a cytoplasmic enzyme; likewise, PI is generally not taken up by cells, except if the cell membrane is severely compromised).

Test [6] concerns mGluR1α. In words: OGD-induced mGluR1 truncation in cultured hippocampal slices (immunoblot). It is filed as cell-based. The settings on record: longer OGD (50-min), 6 or 24 hours recovery. On the procedure: Cultured hippocampal slices were subjected to 50-min OGD and returned to normal culture condition for another 6 or 24 hours.
(A western blot detects proteins with antibodies after separation by electrophoresis.)

Test [7] relates to spectrin. In words: Brain membranes treated with purified calpain and calcium: spectrin degradation. The test is classed as biochemical. To be noted: purified calpain, calcium. On the procedure: as §1
The subject of test [8] is cortical neurons. The experiment in a line: Glutamate toxicity in transfected GFP-expressing cortical neurons (EthD-1 staining). The test is classed as cell-based. The settings on record: 25 μM glutamate 1 hour, 12 hours later. An excerpt:
In FIGS. 8a and b, cortical neurons were co-transfected with green fluorescent protein (GFP) and vector DNA, myc-mGluR1α or myc-mGluR1α936Δ, respectively. […] Twelve hours later, neurons were stained with EthD-1 to label dead cells. Arrowheads in FIG. 8a indicate EthD-1 positive GFP-expressing neurons. * p<0.05. FIGS. 8c and d are representative photos and bar graphs showing differential roles of endogenous mGluR1 in neuronal toxicity before and after NMDA-induced truncation. Cortical neurons were treated as indicated and were stained with EthD-1 (for dead cells) and calcein AM (for live cells) 24 hours later. * p<0.001.
The downstream signaling pathways of mGluR1α, including release of intracellular calcium and activation of P13K-Akt, are both important for excitotoxicity. Therefore, we postulated that NMDA-induced truncation would alter the role of mGluR1α in neuronal toxicity. To test this possibility, we first co-transfected neurons with GFP and a control vector, wild-type mGluR1α or truncated mGluR1α respectively. […] Twelve hours after treatment, neurons were stained with 0.5 μM EthD-1 for 10 minutes to label dead cells. The numbers of GFP-expressing neurons and EthD-1 positive GFP-expressing neurons on each 18×18 mm coverslip were counted to calculate the percentage of dead cells. […] In neurons co-transfected with control vector, 35% (n=9, on average, there were 405 GFP-expressing neurons counted on each coverslip) of GFP-expressing neurons were positive for EthD-1 staining and therefore had died. In neurons co-transfected with wild-type mGluR1α, only 15% of neurons (n=8, in average, there were 428 GFP-expressing neurons counted on each coverslip) were EthD-1 positive, an effect that was statistically different from that in neurons co-transfected with control vector (p<0.01, Student's t-test). […] Therefore it was difficult to determine the exact location of cell bodies and the live/dead ratios in those neurons.

Test [9] concerns mGluR1α. In words: Glutamate/NMDA-induced C-terminal truncation of mGluR1α in cultured cortical neurons (immunoblot). To be noted: 100 μM glutamate. The test is classed as cell-based. The source says: (§3) Total cell lysates were separated by SDS-PAGE and probed with an antibody against the carboxyl terminus (residue 1142-1160) of mGluR1α. […] Total cell lysates were probed with an anti-myc antibody. […] Total cell lysates were probed with antibodies against mGluR5, G1uR2/3 and VGluT1 respectively.
Total cell lysate was collected immediately after treatment and subjected to SDS-PAGE and immunoblotting with an antibody against the carboxyl terminus (residues 1142-1160) of mGluR1α (FIG. 2A). […] Neurons were transfected with a calcium phosphate precipitation method modified for high transfection rate (Jian et al., Gene Ther 11:1301-1311, 2004).
Cortical neurons were treated with NMDA at the indicated concentrations for 1 h or treated with NMDA (10 μM) for the indicated times. Total cell lysates were separated by SDS-PAGE and probed with antibodies against mGluR1α1142-1160, Results were normalized over control values and are means±s.e.m. of 4 experiments.
To determine whether activation of mGluR1α itself was required for the truncation, two distinct mGluR1α antagonists were applied.
To further characterize NMDA-induced mGluR1α truncation, the concentration- and time-dependencies of the effects of NMDA were studied. Cortical neurons were first incubated with different concentrations of NMDA for a fixed period of time (1 hour) (FIG. 3F). […] In a following experiment, cortical neurons were incubated with 10 μM NMDA for different durations ranging from 1 to 60 min (FIG. 3G).
Cortical neurons were treated with NMDA (10 μM, 1 h). Total cell lysates were separated by SDS-PAGE and probed with antibodies against spectrin and mGluR1α1142-1160, respectively. Only the degradation bands of spectrin (spectrin DB, at ˜145 KD) are shown. […] In FIG. 4C, purified myc-mGluR1α was digested with μ-calpain at the indicated concentrations (U/ml) for 30 min. The digested material was processed for SDS-PAGE and subjected to silver staining or immunoblots with anti-myc or anti-mGluR1α1142-1160 antibodies. […] The 1st lane was the myc-mGluR1α immunoprecipitated from 293 cells; the 2nd and 3rd lanes were immunoprecipitated myc-mGluR1α digested with indicated concentration of calpain. […] FIG. 4F is the alignment of mGluR1 (902-941) and mGluR5 (889-927) surrounding the calpain cleavage site.
In this set of experiments, we determined which protease(s) mediated NMDA-induced truncation of mGluR1α. […] Cortical neurons were pretreated with a calpain inhibitor, the cell-permeable calpain-inhibitor III, or the caspase inhibitor cpm-VAD-CHO for 2 hours and then incubated in the absence or presence of 100 µM NMDA for 1 hour. […] To further confirm calpain activation by NMDA under our experimental conditions, we determined the levels of the calpain-specific spectrin degradation fragments.

Test [10] relates to vesicular glutamate transporter (vGluT1). The experiment in a line: vGluT1 levels in cortical neurons after glutamate (immunoblot). It is filed as cell-based. To be noted: 100 μM glutamate, 60 min.
Source text: as §3
To test for the specificity of glutamate-mediated truncation of mGluR1α, immunoblots were also probed with an antibody against mGluR5, another member of group I mGluRs, which shares a high similarity with mGluR1α.

The test system of test [11] is mGluR5. The experiment in a line: mGluR5 levels in cortical neurons after glutamate (immunoblot). The test is classed as cell-based. The settings on record: 100 μM glutamate, 60 min.
Source text: as §3

Regarding “YGRKKRRQRRRVIKPLTKSYQGSGK [tat-mGluR1 peptide]”, the “prevention of NMDA-mediated neurotoxicity” value in [1] is listed as “almost completely prevented”. Besides, the “prevention of calpain-mediated mGluR1 truncation” value in test [2] is recorded as “prevented”. The “effect on kainic acid-induced neuronal damage (silver staining of pyramidal cell layer)” value in test [3] (peptide 100 mg/kg i.p. 90 min before kainic acid 30 mg/kg s.c., 7 days) is reported as “dramatically reduced; also recorded: significantly reduced”. For the same molecule, the “effect on severity or duration of kainic acid-induced seizures” value in test [3] (peptide i.p. 90 min before kainic acid) was “did not influence”. In addition, the “reduction of kainic acid-induced mGluR1 truncation” value in [4] was “significantly reduced”. In addition, the “neuroprotection assessed with LDH release” value in test [5] is recorded as “complete neuroprotection”. For the same molecule, in [5], the “neuroprotection assessed with PI uptake” value is listed as “complete neuroprotection”. For the same molecule, the entries for the “block of OGD-induced mGluR1 truncation” value in test [6] and in test [6] (listed as TAT-mGluR1α fusion peptide) were “almost completely blocked” and “partially restored”, respectively. Besides, the “prevention of calpain-mediated spectrin degradation” value in [7] was “not”.
On to `N[C@@H](CCC(=O)O)C(=O)O` [glutamate], for which the “EthD-1 positive GFP-expressing neurons (dead cells)” value came out at 35% in test [8] (co-transfected with control vector), 59% in test [8] (co-transfected with mGluR1α936Δ) and 15% in [8] (co-transfected with wild-type mGluR1α). Further, the “time at which mGluR1α truncation was apparent after glutamate treatment” value in test [9] stood at 1 min. Moreover, the “levels of native mGluR1α” value in test [9] (60 min (1 hour)) is “almost completely disappeared; also recorded: significant reduction”. Moreover, the “changes to vGluT1” value in test [10] was “no significant changes”. Further, the “levels of mGluR5” value in test [11] is given as “not significantly altered”.
